Usually GI50 stands for the concentration giving 50% growth inhibition. As a reminder, the zone of inhibition is the size of the clear area around the sample on an inoculated plate. A low value points to a weaker effect on the plate. By pIC50 is commonly meant the IC50 on a negative log10 scale, so that one unit is a factor of ten.

The test system of experiment [1] is SK-BR3. Description: cells. To be noted: Homo sapiens; for GI50: SK-BR-3, read-out: GI50 SK-BR3; for CC50: SK-BR-3, read-out: LC50 SK-BR3.
The subject of experiment [2] is IGROV. To be noted: Ovary.
In experiment [3] the test system is Bacillus subtilis. Description: Antimicrobial activity on solid medium, disk. It counts as cell-based. To be noted: Bacillus subtilis, 10 μg/disk (6 mm diameter). How it is done: Antimicrobial activity: On solid medium Bacillus subtilis. 10 μg/disk (6 mm diameter): 10 mm inhibition zone Spectroscopic Data: […]
Experiment [4] has as its system A549. To be noted: NSCL.
The nature of experiment [5]: Antibacterial and antitumoral activities, general statements. To be noted: compared with safracin A / safracin B.
Experiment [6] concerns LN-caP. Description: cells. To be noted: Homo sapiens, LNCaP; for GI50: read-out: GI50 LN-caP; for CC50: read-out: LC50 LN-caP.
Experiment [7] has as its system HT29. Description: cells. To be noted: Homo sapiens; for GI50: HT-29, read-out: GI50 HT29; for CC50: HT-29, read-out: LC50 HT29.
In experiment [8] the test system is PANC1. To be noted: Pancreas.
Experiment [9] relates to LOVO. As to the kind of experiment: cells. To be noted: Homo sapiens; for GI50: read-out: GI50 LOVO; for CC50: read-out: LC50 LOVO.
The test system of experiment [10] is K-562. To be noted: Leukemia.
The test system of experiment [11] is SK-BR3. To be noted: Breast.
The subject of experiment [12] is SK-MEL-28. As to the kind of experiment: cells. To be noted: Homo sapiens; for GI50: SK-MEL-28, read-out: GI50 SK-MEL-28; for CC50: SK-MEL-28, read-out: LC50 SK-MEL-28.
Experiment [13] relates to HELA. Description: cells. To be noted: Homo sapiens; for GI50: read-out: GI50 HELA; for CC50: read-out: LC50 HELA.
Experiment [14] deals with LN-caP. To be noted: Prostate.
Experiment [15] deals with DNA synthesis. Description: Secondary Screening, Macromolecules Synthesis DNA. It counts as cell-based. To be noted: Secondary Evaluation.
Experiment [16] deals with HELA-APL. Description: cells. To be noted: for GI50: read-out: GI50 HELA-APL; for CC50: read-out: LC50 HELA-APL.
The test system of experiment [17] is DU-145. As to the kind of experiment: cells. To be noted: Homo sapiens; for GI50: DU-145, read-out: GI50 DU-145; for CC50: DU-145, read-out: LC50 DU-145.
The test system of experiment [18] is IGROV-ET. To be noted: Ovary.
Experiment [19] deals with LOVO-DOX. Description: cells. To be noted: for GI50: read-out: GI50 LOVO-DOX; for CC50: read-out: LC50 LOVO-DOX.
Experiment [20] relates to PROTEIN synthesis. Description: Secondary Screening, Macromolecules Synthesis PROTEIN. It counts as cell-based. To be noted: Secondary Evaluation.
Experiment [21] has as its system SK-MEL-28. To be noted: Melanoma.
Experiment [22] relates to PANC1. As to the kind of experiment: cells. To be noted: Homo sapiens; for GI50: PANC-1, read-out: GI50 PANC1; for CC50: PANC-1, read-out: LC50 PANC1.
Experiment [23] relates to DU-145. To be noted: Prostate.
For experiment [24], the system named is LOVO-DOX. To be noted: Colon.
Experiment [25] has as its system IGROV. Description: cells. To be noted: for GI50: read-out: GI50 IGROV; for CC50: read-out: LC50 IGROV.
Experiment [26] concerns HT29. To be noted: Colon.
Experiment [27] concerns HELA-APL. To be noted: Cervix.
In experiment [28] the test system is A549. Description: cells. To be noted: Homo sapiens; for GI50: A549, read-out: GI50 A549; for CC50: A549, read-out: LC50 A549.
Experiment [29] relates to LOVO. To be noted: Colon.
In experiment [30] the test system is IGROV-ET. Description: cells. To be noted: for GI50: read-out: GI50 IGROV-ET; for CC50: read-out: LC50 IGROV-ET.
The subject of experiment [31] is HELA. To be noted: Cervix.
The subject of experiment [32] is K-562. As to the kind of experiment: cells. To be noted: Homo sapiens; for GI50: K562, read-out: GI50 K-562; for CC50: K562, read-out: LC50 K-562.
For experiment [33] the following is noted: different tumor cell lines; background; cited from earlier work.
The nature of experiment [34]: Biological Activities of natural precursors (test not specified).

Molecules are shown by their SMILES. pIC50: −log10 of the molar value. Where only a bound is given, the exact number is not on record here.

On to `CCOC1=C(C)C(=O)C2=C(C1=O)C(CNC(=O)C(C)N)N1CC3Cc4cc(C)c(OCC)c(O)c4C(C1C2)N3C` (stereo not shown) [Safracin A (OEt)], for which the GI50 turned out to be 0.555 µM in [1]; 0.378 µM in experiment [6]; 1.97 µM in experiment [7]; 2.03 µM in experiment [9]; 0.796 µM in experiment [12]; 1.02 µM in [13]. Besides, the GI50 in [16] was found to be 0.764 µM; in [17], 2.64 µM; in experiment [19], 5.72 µM; in experiment [22], 3.06 µM; in [25], 0.492 µM; in experiment [28] it was 4 µM. For the same molecule, the GI50 in experiment [30] came to 2.01 µM; in experiment [32] it was 0.311 µM. Moreover, the CC50 in experiment [1] amounted to 5.57 µM; in experiment [6], 1.45 µM; in [7] it was 9.88 µM; in [9], 9.61 µM; in experiment [12] it was 5.77 µM; in [13], 7.85 µM. The CC50 in [16] amounted to 6.69 µM; in experiment [17], 11 µM; in experiment [19], 16.9 µM; in [22] it was 11.1 µM; in experiment [25], 1.76 µM; in experiment [28], 12.8 µM. Besides, the values for the CC50 in experiment [30] and in experiment [32] were 13 µM and 1.51 µM, respectively. For the same molecule, the “TGI IGROV” value in experiment [2] amounted to 0.928 µM. In experiment [3], this molecule displayed a zone of inhibition at 10 µg/disc of 10 mm. The “TGI A549” value in experiment [4] worked out at 7.17 µM. The “antibacterial and antitumoral activities (in words)” value in experiment [5] is “as potent as the activities of safracin A and safracin B, respectively”. Also, in experiment [8], the “TGI PANC1” value was determined as 5.83 µM. Also, the “TGI K-562” value in experiment [10] was found to be 0.686 µM. Besides, the “TGI SK-BR3” value in experiment [11] is 1.16 µM. The “TGI LN-caP” value in experiment [14] was 0.742 µM. In addition, the figures for the negative-log IC50 (pIC50) in [15] and in experiment [20] were 5.74 and 5.20, respectively. Also, in experiment [18], the “TGI IGROV-ET” value came to 5.1 µM. Further, the “TGI SK-MEL-28” value in experiment [21] was 1.9 µM. In addition, the “TGI DU-145” value in experiment [23] stood at 5.39 µM. Further, the “TGI LOVO-DOX” value in [24] turned out to be 9.84 µM. Besides, in [26], the “TGI HT29” value stood at 4.41 µM. Further, the “TGI HELA-APL” value in experiment [27] is 2.32 µM. Also, in experiment [29], the “TGI LOVO” value was 4.41 µM. For the same molecule, the “TGI HELA” value in [31] stood at 2.91 µM.
With `COC1=C(C)C(=O)C2=C(C1=O)[C@H](CNC(=O)[C@H](C)N)N1C[C@@H]3Cc4cc(C)c(OC)c(O)c4[C@H]([C@@H]1C2)N3C` [Safracin A, reference compound], the “antibacterial and antitumoral activities (in words)” value in experiment [5] is “less antibiotic and antitumoral activity”. In addition, the “antitumor and antibacterial activity (in words)” value in experiment [33] is “possess antitumor activity in addition to antibacterial activity”.
Consider `COC1=C(C)C(=O)C2=C(C1=O)[C@H](CNC(=O)[C@H](C)N)N1[C@@H](O)[C@H]3Cc4cc(C)c(OC)c(O)c4[C@@H]([C@@H]1C2)N3C` [Safracin B], for which the “antitumor and antibacterial activity (in words)” value in [33] was “possess antitumor activity in addition to antibacterial activity”.
Turning to `COC1=C(C)C(=O)C2=C(C1=O)C(CNC(=O)C(C)N)N1CC3Cc4cc(C)c(OC)c(O)c4C(N3)C1C2` (stereo not shown) [Safracin E], the concentration for 50% growth inhibition (GI50) in experiment [1] was 5.05 µM; in [6], 3.86 µM; in [7], 7.89 µM; in experiment [9], 7.15 µM; in experiment [12], 3.94 µM; in experiment [13], 4.15 µM. Moreover, the GI50 in [16] stood at 4.03 µM; in [17] it was 8.34 µM; in experiment [19], 5.07 µM; in experiment [22], 6.05 µM; in experiment [25] it was 4.5 µM; in experiment [28], 19.6 µM. Further, the 50% growth inhibitory concentration (GI50) in [30] was found to be 4.54 µM; in [32], 4.25 µM. For the same molecule, the CC50 in experiment [1] was 17 µM; in experiment [6], 15.4 µM; in experiment [7], > 19.6 µM; in [9] it was > 19.6 µM; in experiment [12], 12.2 µM; in experiment [13], 12.8 µM. The CC50 in [16] was 13 µM; in [17], > 19.6 µM; in [19] it was 17.5 µM; in [22] it was > 19.6 µM; in experiment [25] it was 17.4 µM; in [28], > 19.6 µM. Further, the CC50 in experiment [30] amounted to 14.9 µM; in experiment [32], 15.9 µM. The “TGI IGROV” value in experiment [2] amounted to 8.85 µM. In addition, the zone of inhibition at 10 µg/disc in experiment [3] was 9.5 mm. Besides, in experiment [4], the “TGI A549” value was >19.6 µM. In addition, the “antibacterial and antitumoral activities (in words)” value in [5] is “the same antibacterial and antitumoral activities as safracin B and safracin A, respectively”. In addition, the “TGI PANC1” value in experiment [8] amounted to 14.7 µM. Besides, the “TGI K-562” value in experiment [10] came to 8.21 µM. For the same molecule, the “TGI SK-BR3” value in experiment [11] was 9.24 µM. Besides, in experiment [14], the “TGI LN-caP” value turned out to be 7.7 µM. For the same molecule, the pIC50 in experiment [15] was < 4.71; in experiment [20], 4.80. In addition, the “TGI IGROV-ET” value in experiment [18] came out at 8.25 µM. Further, the “TGI SK-MEL-28” value in experiment [21] came to 6.93 µM. For the same molecule, in [23], the “TGI DU-145” value is 19.6 µM. Also, the “TGI LOVO-DOX” value in experiment [24] came out at 9.44 µM. The “TGI HT29” value in experiment [26] was 19.6 µM. Further, the “TGI HELA-APL” value in experiment [27] was found to be 7.25 µM. Besides, the “TGI LOVO” value in experiment [29] is >19.6 µM. For the same molecule, the “TGI HELA” value in [31] amounted to 7.29 µM.
With `COc1c(C)cc(C[C@H](N)C(=O)O)cc1O` [Safracin P-2, 3-hydroxy-5-methyl-O-methyltyrosine], the “Biological Activities” value in experiment [34] was “NO ACTIVE”.
For `COc1ccc(C[C@H](N)C(=O)O)cc1C` [Safracin P-14, 3-methyl-O-methyltyrosine], the “Biological Activities” value in [34] is listed as “NO ACTIVE”.

The values are drawn from US7723068B2, “Gene cluster involved in safracin biosynthesis and its uses for genetic engineering” (PharmaMar, S.A., priority 2002, dated 2010).
